Laboratory results reported in ChEMBL document CHEMBL1201862, “PubChem BioAssay data set” (2004).
Calls of active or inactive are those of the source.

Columns and labels:
INS1 = test: beta cell apoptosis inhibitors, cytokine rescue, dose response, luminescence, retest (AID 449756); format: functional, cell-based; settings: Rattus norvegicus;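 further: cell death triggered by IL-1 beta plus TNF-alpha plus IFN-gamma mixture; protective hits raise ATP signal compared with cytokine alone wells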
Protein Wnt-3a = Protein Wnt-3a (Mus musculus, UniProt P27467); test: Wnt3a-driven reporter signaling inhibition, dose response, selectivity assay for Gli-SUFU antagonist project, Wnt-LIGHT cells, luminescence (AID 651570); format: functional; settings: read-out: IC50_Mean;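 further: Wnt-LIGHT reporter cells stimulated with conditioned medium from Wnt3a-producing cells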
Protein Wnt-3a, sequence (P27467 whole entry): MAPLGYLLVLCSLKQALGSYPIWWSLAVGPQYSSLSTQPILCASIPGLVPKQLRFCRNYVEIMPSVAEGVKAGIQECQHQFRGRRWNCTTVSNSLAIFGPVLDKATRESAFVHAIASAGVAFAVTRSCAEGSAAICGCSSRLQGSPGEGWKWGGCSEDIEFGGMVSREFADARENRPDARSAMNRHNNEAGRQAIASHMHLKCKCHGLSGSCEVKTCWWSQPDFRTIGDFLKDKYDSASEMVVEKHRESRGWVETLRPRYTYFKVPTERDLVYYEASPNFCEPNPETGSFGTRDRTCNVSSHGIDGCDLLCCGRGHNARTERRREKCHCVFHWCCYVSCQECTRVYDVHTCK

[1] = molecular target: Tyrosine-protein phosphatase non-receptor type 5 (Homo sapiens, UniProt P54829); test: STEP phosphatase inhibitors, confirmation, biochemical, fluorescence intensity, uHTS hits (AID 602372); format: functional; settings: read-out: IC50_Mean
Tyrosine-protein phosphatase non-receptor type 5, sequence (P54829 whole entry): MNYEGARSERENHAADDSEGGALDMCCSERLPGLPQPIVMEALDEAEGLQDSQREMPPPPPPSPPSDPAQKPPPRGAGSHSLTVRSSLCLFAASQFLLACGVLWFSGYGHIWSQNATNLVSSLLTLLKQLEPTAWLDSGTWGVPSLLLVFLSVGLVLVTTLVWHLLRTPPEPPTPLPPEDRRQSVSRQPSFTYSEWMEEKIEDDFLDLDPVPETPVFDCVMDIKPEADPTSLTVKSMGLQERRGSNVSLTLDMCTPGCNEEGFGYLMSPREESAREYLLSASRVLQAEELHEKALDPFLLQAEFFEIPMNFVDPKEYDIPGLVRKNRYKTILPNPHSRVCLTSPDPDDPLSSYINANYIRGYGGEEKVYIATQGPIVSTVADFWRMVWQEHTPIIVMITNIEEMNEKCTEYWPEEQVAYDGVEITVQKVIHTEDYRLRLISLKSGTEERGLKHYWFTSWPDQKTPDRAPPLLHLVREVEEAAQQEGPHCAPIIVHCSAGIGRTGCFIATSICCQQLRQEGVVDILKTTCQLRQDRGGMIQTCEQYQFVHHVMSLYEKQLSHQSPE

[2] = molecular target: Tyrosine-protein phosphatase non-receptor type 11 (Homo sapiens, UniProt Q06124); test: SHP2 phosphatase inhibition, dose response, selectivity assay for STEP inhibitor project, biochemical (AID 602367); format: functional; settings: read-out: IC50_Mean
Tyrosine-protein phosphatase non-receptor type 11, sequence (Q06124 whole entry): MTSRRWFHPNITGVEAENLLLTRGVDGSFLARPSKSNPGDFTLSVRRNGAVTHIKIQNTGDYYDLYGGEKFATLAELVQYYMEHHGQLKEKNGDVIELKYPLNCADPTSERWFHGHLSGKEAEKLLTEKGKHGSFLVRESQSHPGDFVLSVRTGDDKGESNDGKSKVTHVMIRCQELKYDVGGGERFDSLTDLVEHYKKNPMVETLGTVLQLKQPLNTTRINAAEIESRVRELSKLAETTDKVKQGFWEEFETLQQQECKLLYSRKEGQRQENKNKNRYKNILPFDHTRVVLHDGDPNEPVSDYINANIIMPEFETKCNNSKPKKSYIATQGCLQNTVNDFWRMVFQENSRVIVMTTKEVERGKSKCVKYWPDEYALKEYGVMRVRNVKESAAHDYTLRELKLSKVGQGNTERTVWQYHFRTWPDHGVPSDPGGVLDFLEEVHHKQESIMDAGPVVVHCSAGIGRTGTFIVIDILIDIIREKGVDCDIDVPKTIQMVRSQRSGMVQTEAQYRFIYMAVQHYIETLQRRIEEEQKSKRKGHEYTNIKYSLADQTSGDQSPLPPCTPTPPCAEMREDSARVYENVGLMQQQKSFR

[3] = molecular target: Dual specificity protein phosphatase 3 (Homo sapiens, UniProt P51452); test: VHR phosphatase inhibition, dose response, selectivity assay for STEP inhibitor project, biochemical (AID 602374); format: functional; settings: read-out: IC50_Mean
Dual specificity protein phosphatase 3, sequence (P51452 whole entry): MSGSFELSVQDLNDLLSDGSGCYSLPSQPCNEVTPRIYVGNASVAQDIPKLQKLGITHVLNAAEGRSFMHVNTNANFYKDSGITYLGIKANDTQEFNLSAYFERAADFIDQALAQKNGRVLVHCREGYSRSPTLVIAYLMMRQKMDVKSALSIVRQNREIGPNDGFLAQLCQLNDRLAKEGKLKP

[4] = molecular target: T1, Mitochondrial peptide methionine sulfoxide reductase (Bos taurus, UniProt P54149); test: Absorbance-based biochemical high throughput dose response assay for activators of Methionine sulfoxide reductase A (MsrA).; format: functional
T1 sequence (P54149 whole entry): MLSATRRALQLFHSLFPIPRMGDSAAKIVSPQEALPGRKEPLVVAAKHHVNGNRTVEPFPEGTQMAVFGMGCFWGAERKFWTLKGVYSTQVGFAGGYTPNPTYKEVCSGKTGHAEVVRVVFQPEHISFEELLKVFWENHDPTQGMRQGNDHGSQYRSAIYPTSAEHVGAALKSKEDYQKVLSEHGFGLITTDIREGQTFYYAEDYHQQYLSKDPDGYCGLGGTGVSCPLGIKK

[5] = molecular target: Hepatocyte nuclear factor 4-alpha (Homo sapiens, UniProt P41235); format: functional, cell-based;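 further: biochemical luminescence-based dose-response counterscreen measuring inhibition of HNF4 dimerization, run alongside a screen for blockers of ABHD5–perilipin-5 interaction; split luciferase complementation of HNF4 fusion proteins in cell lysate measuring dimerization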
Hepatocyte nuclear factor 4-alpha, sequence (P41235 whole entry, the tested form may be a part): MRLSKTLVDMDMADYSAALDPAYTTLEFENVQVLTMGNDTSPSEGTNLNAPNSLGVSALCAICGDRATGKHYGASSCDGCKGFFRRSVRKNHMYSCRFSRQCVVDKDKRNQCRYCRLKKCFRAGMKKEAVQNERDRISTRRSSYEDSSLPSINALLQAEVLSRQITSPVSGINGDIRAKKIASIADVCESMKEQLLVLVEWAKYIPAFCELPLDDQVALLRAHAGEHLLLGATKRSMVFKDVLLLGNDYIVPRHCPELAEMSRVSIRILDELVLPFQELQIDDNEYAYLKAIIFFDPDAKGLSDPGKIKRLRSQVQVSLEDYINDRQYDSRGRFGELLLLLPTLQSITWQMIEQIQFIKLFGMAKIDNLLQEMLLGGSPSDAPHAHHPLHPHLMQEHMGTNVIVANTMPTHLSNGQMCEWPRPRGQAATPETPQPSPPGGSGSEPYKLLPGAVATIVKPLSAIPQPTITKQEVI

CC(C)C(=O)NC(=S)/C=C1/N(C)c2ccccc2C1(C)C
AC50 (INS1): 7.53 µM (active)
IC50 (Protein Wnt-3a): 9.3 µM (active)

O=C(N/N=C/c1coc2ccccc2c1=O)c1cc2ccccc2o1
IC50 [1]: 35.8 µM (inactive)
IC50 [2]: 33.4 µM (inactive)
IC50 [3]: 14.1 µM (active)

COc1ccc(OC)c(/C=N/N(CCC#N)C2=NS(=O)(=O)c3ccccc32)c1
EC50 [4]: > 104 µM (inactive)

O=C(NCc1ccccc1)C(c1cc2ccccc2o1)n1c(=O)c(-c2ccco2)nc2ccccc21 (configuration not stated)
IC50 [5]: 3.07 µM (active)
